Positions count from the first letter of the chain named. Read-outs that look alike come from different tables or passages of the source.
Tests used:
Test in all cases: [3H]glycine transport by GlyT2 mutant in COS7 cells
Format in all cases: cell-based
GlyT2 F478Y mutant = target: T1, GlyT2 F478Y mutant (Rattus norvegicus, UniProt P58295, F478Y)
T1 construct: expressed in transfected cells; host or cells: COS7
T1 sequence (P58295 1-799 F478Y): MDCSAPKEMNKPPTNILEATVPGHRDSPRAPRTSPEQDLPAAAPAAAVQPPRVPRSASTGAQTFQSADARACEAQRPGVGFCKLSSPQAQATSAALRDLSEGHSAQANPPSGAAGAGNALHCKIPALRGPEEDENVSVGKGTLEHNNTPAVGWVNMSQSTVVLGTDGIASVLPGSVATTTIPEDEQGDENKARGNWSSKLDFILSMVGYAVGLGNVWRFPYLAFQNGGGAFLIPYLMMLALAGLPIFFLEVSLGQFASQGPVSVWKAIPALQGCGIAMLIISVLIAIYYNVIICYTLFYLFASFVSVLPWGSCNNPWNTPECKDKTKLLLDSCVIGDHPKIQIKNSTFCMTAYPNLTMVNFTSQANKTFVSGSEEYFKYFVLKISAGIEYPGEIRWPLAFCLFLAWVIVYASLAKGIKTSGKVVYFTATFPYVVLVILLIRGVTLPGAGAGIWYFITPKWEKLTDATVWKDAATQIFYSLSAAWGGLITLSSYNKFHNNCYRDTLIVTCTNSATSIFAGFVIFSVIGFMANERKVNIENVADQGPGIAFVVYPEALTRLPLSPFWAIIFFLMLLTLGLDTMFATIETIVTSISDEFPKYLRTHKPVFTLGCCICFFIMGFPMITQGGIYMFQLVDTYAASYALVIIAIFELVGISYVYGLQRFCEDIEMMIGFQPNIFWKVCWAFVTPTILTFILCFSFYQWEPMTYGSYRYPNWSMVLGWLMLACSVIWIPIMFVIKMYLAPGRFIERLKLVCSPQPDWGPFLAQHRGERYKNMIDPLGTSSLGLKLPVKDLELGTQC
Text: (§1) To validate the predicted interactions between the inhibitors and GlyT2, we used systematic site-directed mutagenesis to construct substitution mutants of the potential residues involved in ligand binding. […] The GlyT2 residues predicted to interact with the inhibitors through its side chain were replaced by amino acids expected to force the loss of the interaction. In the cases where the interaction occurred through the backbone, the inserted amino acid sought to alter the disposition of the substituted residue to lose the coordination.
(§2) Substitution mutants were generated with the QuikChange II Site-Directed Mutagenesis kit (Agilent Technologies, Santa Clara, CA, USA), using rGlyT2 or rGlyT1 subcloned in pCDNA3.[47] The complete coding region of all of the constructs was sequenced to verify that only the desired mutation had been introduced. […] COS7 cells were grown and transfected using Turbofect Transfection Reagent (Thermo Fisher Scientific, Waltham, MA, USA), following the manufacturer’s protocol (2 μL reagent/μg of DNA). Cells were incubated for 48 h at 37 °C until used.
(§3) At the end of the desired time (usually 10 min), reactions were washed and terminated by aspiration. […] A nonlinear curve fitting method was used to obtain IC50 values using Graphpad Prism software, version 6.0, Graphpad, San Diego, CA, USA.

GlyT2 G214L mutant = target: T2, GlyT2 G214L mutant (Rattus norvegicus, UniProt P58295, G214L)
T2 construct: expressed in transfected cells; host or cells: COS7
T2 sequence (P58295 1-799 G214L): T1 sequence (P58295 1-799 F478Y) with G214L, Y478F
Text: as §1, §2, §3

GlyT2 T580C mutant = target: T3, GlyT2 T580C mutant (Rattus norvegicus, UniProt P58295, T580C)
T3 construct: expressed in transfected cells; host or cells: COS7
T3 sequence (P58295 1-799 T580C): T1 sequence (P58295 1-799 F478Y) with Y478F, T580C
Text: as §1, §2, §3

| IC50 (GlyT2 F478Y mutant; read-out: IC50 (Table S1)) [nM] | IC50 (GlyT2 G214L mutant; read-out: IC50 (Table S1)) [nM] | IC50 (GlyT2 T580C mutant; read-out: IC50 (Table S1)) [nM] | Structure (SMILES) | IC50 (GlyT2 F478Y mutant) [nM] | IC50 (GlyT2 G214L mutant) [nM] | IC50 (GlyT2 T580C mutant) [nM] |
| --- | --- | --- | --- | --- | --- | --- |
| 50 ± 5 | 38 ± 3 | 84 ± 9 | N[C@@H](COC(c1cccc(F)c1)c1ccccc1OCc1ccccc1)C(=O)O (stereo partly drawn) [ALX1393] |  |  |  |
|  |  |  | COc1cc(C(=O)NCC2(N(C)C)CCCC2)cc(OC)c1OCc1ccccc1 [ORG25543, N-[[1-(dimethylamino)cyclopentyl]methyl]-3,5-dimethoxy-4-(phenylmethoxy)benzamide] | 19 ± 7 | 17 ± 10 | 96 ± 10 |
